Species on record: Rattus norvegicus
Test: DrugMatrix - Regimen: Daily Repeat
Assay type: toxicity, organism-based, Sprague-Dawley
Set-up: regimen Daily Repeat, gender Male, age 6-8 weeks
Conditions: in vivo; for ABSOLUTE BASOPHIL / ABSOLUTE EOSINOPHIL / ABSOLUTE LYMPHOCYTE / ABSOLUTE MONOCYTE / ABSOLUTE SEGMENTED NEUTROPHIL / BASOPHIL / EOSINOPHIL / ERYTHROCYTE COUNT / HEMATOCRIT / HEMOGLOBIN / LEUKOCYTE COUNT / LYMPHOCYTE / MEAN CORPUSCULAR HEMOGLOBIN / MEAN CORPUSCULAR HEMOGLOBIN CONCENTRATION / MEAN CORPUSCULAR VOLUME / MONOCYTE / NEUTROPHIL / NUCLEATED RED BLOOD CELLS / PLATELET COUNT: tissue Blood; for ALANINE AMINOTRANSFERASE / ALBUMIN / ALKALINE PHOSPHATASE / ASPARTATE AMINOTRANSFERASE / BLOOD UREA NITROGEN / CARBON DIOXIDE / CHLORIDE / CHOLESTEROL / CREATINE PHOSPHOKINASE / CREATININE / GLUCOSE / LACTATE DEHYDROGENASE / LIPASE / PHOSPHORUS / POTASSIUM / SODIUM / TOTAL BILIRUBIN / TOTAL PROTEIN / URIC ACID: tissue Plasma
[1] = iv, 0.02 mg/kg, 72 h, dose level Low, time 3 day, vehicle 100 % SALINE
[2] = iv, 0.02 mg/kg, 120 h, dose level Low, time 5 day, vehicle 100 % SALINE
[3] = iv, 43 mg/kg, 72 h, dose level High, time 3 day, vehicle 100 % SALINE
[4] = iv, 43 mg/kg, 120 h, dose level High, time 5 day, vehicle 100 % SALINE
[5] = po, 0 mg/kg, 72 h, route oral GAVAGE, dose level Control, time 3 day, […]

CC(CCc1ccc(O)cc1)NCCc1ccc(O)c(O)c1 (configuration not stated) [DOBUTAMINE]
ABSOLUTE BASOPHIL [1]: 0 CELLS/uL
ABSOLUTE EOSINOPHIL [1]: 0 CELLS/uL
ABSOLUTE LYMPHOCYTE [1]: 16404 CELLS/uL
ABSOLUTE MONOCYTE [1]: 67.67 CELLS/uL
ABSOLUTE SEGMENTED NEUTROPHIL [1]: 1828.33 CELLS/uL
BASOPHIL [1]: 0%
EOSINOPHIL [1]: 0%
ERYTHROCYTE COUNT [1]: 5.5 x10E6/uL
HEMATOCRIT [1]: 35.6%
HEMOGLOBIN [1]: 13.9 G/DL
LEUKOCYTE COUNT [1]: 18.3 x10E3/uL
LYMPHOCYTE [1]: 89.67%
MEAN CORPUSCULAR HEMOGLOBIN [1]: 25.27 pg
MEAN CORPUSCULAR HEMOGLOBIN CONCENTRATION [1]: 39.03 G/DL
MEAN CORPUSCULAR VOLUME [1]: 64.67 fL
MONOCYTE [1]: 0.33%
NEUTROPHIL [1]: 10%
NUCLEATED RED BLOOD CELLS [1]: 0 /100WBC
PLATELET COUNT [1]: 1067.33 x10E3/uL
ALANINE AMINOTRANSFERASE [1]: 57.33 u/L
ALBUMIN [1]: 4.07 G/DL
ALKALINE PHOSPHATASE [1]: 391.33 u/L
ASPARTATE AMINOTRANSFERASE [1]: 107.33 u/L
BLOOD UREA NITROGEN [1]: 15.67 mg/dL
CARBON DIOXIDE [1]: 28 mmol/L
CHLORIDE [1]: 97.33 MEQ/L
CHOLESTEROL [1]: 78 mg/dL
CREATINE PHOSPHOKINASE [1]: 548.67 u/L
CREATININE [1]: 0.13 mg/dL
GLUCOSE [1]: 175.33 mg/dL
LACTATE DEHYDROGENASE [1]: 236 u/L
LIPASE [1]: 10.33 u/L
PHOSPHORUS [1]: 12.27 mg/dL
POTASSIUM [1]: 7.46 MEQ/L
SODIUM [1]: 141.6 MEQ/L
TOTAL BILIRUBIN [1]: 0.3 mg/dL
TOTAL PROTEIN [1]: 5.77 G/DL
URIC ACID [1]: 1.63 mg/dL
ABSOLUTE BASOPHIL [2]: 0 CELLS/uL
ABSOLUTE EOSINOPHIL [2]: 0 CELLS/uL
ABSOLUTE LYMPHOCYTE [2]: 19433.33 CELLS/uL
ABSOLUTE MONOCYTE [2]: 145.67 CELLS/uL
ABSOLUTE SEGMENTED NEUTROPHIL [2]: 1621 CELLS/uL
BASOPHIL [2]: 0%
EOSINOPHIL [2]: 0%
ERYTHROCYTE COUNT [2]: 5.54 x10E6/uL
HEMATOCRIT [2]: 35.5%
HEMOGLOBIN [2]: 14 G/DL
LEUKOCYTE COUNT [2]: 21.2 x10E3/uL
LYMPHOCYTE [2]: 92%
MEAN CORPUSCULAR HEMOGLOBIN [2]: 25.27 pg
MEAN CORPUSCULAR HEMOGLOBIN CONCENTRATION [2]: 39.47 G/DL
MEAN CORPUSCULAR VOLUME [2]: 64.03 fL
MONOCYTE [2]: 0.67%
NEUTROPHIL [2]: 7.33%
NUCLEATED RED BLOOD CELLS [2]: 0.33 /100WBC
PLATELET COUNT [2]: 1240.33 x10E3/uL
ALANINE AMINOTRANSFERASE [2]: 61 u/L
ALBUMIN [2]: 4.03 G/DL
ALKALINE PHOSPHATASE [2]: 438.67 u/L
ASPARTATE AMINOTRANSFERASE [2]: 84.33 u/L
BLOOD UREA NITROGEN [2]: 18.67 mg/dL
CARBON DIOXIDE [2]: 27.33 mmol/L
CHLORIDE [2]: 101.33 MEQ/L
CHOLESTEROL [2]: 73.33 mg/dL
CREATINE PHOSPHOKINASE [2]: 325 u/L
CREATININE [2]: 0.14 mg/dL
GLUCOSE [2]: 163 mg/dL
LACTATE DEHYDROGENASE [2]: 262.67 u/L
LIPASE [2]: 8.67 u/L
PHOSPHORUS [2]: 11.8 mg/dL
POTASSIUM [2]: 7.21 MEQ/L
SODIUM [2]: 140.77 MEQ/L
TOTAL BILIRUBIN [2]: 0.13 mg/dL
TOTAL PROTEIN [2]: 6.03 G/DL
URIC ACID [2]: 1.63 mg/dL
ABSOLUTE BASOPHIL [3]: 0 CELLS/uL
ABSOLUTE EOSINOPHIL [3]: 0 CELLS/uL
ABSOLUTE LYMPHOCYTE [3]: 11605 CELLS/uL
ABSOLUTE MONOCYTE [3]: 107 CELLS/uL
ABSOLUTE SEGMENTED NEUTROPHIL [3]: 488 CELLS/uL
BASOPHIL [3]: 0%
EOSINOPHIL [3]: 0%
ERYTHROCYTE COUNT [3]: 5.51 x10E6/uL
HEMATOCRIT [3]: 36.1%
HEMOGLOBIN [3]: 14.37 G/DL
LEUKOCYTE COUNT [3]: 12.2 x10E3/uL
LYMPHOCYTE [3]: 95%
MEAN CORPUSCULAR HEMOGLOBIN [3]: 26.1 pg
MEAN CORPUSCULAR HEMOGLOBIN CONCENTRATION [3]: 39.8 G/DL
MEAN CORPUSCULAR VOLUME [3]: 65.6 fL
MONOCYTE [3]: 1%
NEUTROPHIL [3]: 4%
NUCLEATED RED BLOOD CELLS [3]: 0 /100WBC
PLATELET COUNT [3]: 1374.33 x10E3/uL
ALANINE AMINOTRANSFERASE [3]: 75.67 u/L
ALBUMIN [3]: 4.37 G/DL
ALKALINE PHOSPHATASE [3]: 486 u/L
ASPARTATE AMINOTRANSFERASE [3]: 91 u/L
BLOOD UREA NITROGEN [3]: 18 mg/dL
CARBON DIOXIDE [3]: 29.67 mmol/L
CHLORIDE [3]: 98.33 MEQ/L
CHOLESTEROL [3]: 67.33 mg/dL
CREATINE PHOSPHOKINASE [3]: 326 u/L
CREATININE [3]: 0.19 mg/dL
GLUCOSE [3]: 190 mg/dL
LACTATE DEHYDROGENASE [3]: 114.33 u/L
LIPASE [3]: 10 u/L
PHOSPHORUS [3]: 13.03 mg/dL
POTASSIUM [3]: 6.8 MEQ/L
SODIUM [3]: 143.43 MEQ/L
TOTAL BILIRUBIN [3]: 0.17 mg/dL
TOTAL PROTEIN [3]: 6.27 G/DL
URIC ACID [3]: 2.17 mg/dL
ABSOLUTE BASOPHIL [4]: 0 CELLS/uL
ABSOLUTE EOSINOPHIL [4]: 0 CELLS/uL
ABSOLUTE LYMPHOCYTE [4]: 14283 CELLS/uL
ABSOLUTE MONOCYTE [4]: 137.67 CELLS/uL
ABSOLUTE SEGMENTED NEUTROPHIL [4]: 1112.67 CELLS/uL
BASOPHIL [4]: 0%
EOSINOPHIL [4]: 0%
ERYTHROCYTE COUNT [4]: 5.95 x10E6/uL
HEMATOCRIT [4]: 37.37%
HEMOGLOBIN [4]: 14.87 G/DL
LEUKOCYTE COUNT [4]: 15.53 x10E3/uL
LYMPHOCYTE [4]: 91.33%
MEAN CORPUSCULAR HEMOGLOBIN [4]: 25.13 pg
MEAN CORPUSCULAR HEMOGLOBIN CONCENTRATION [4]: 39.87 G/DL
MEAN CORPUSCULAR VOLUME [4]: 63.03 fL
MONOCYTE [4]: 1%
NEUTROPHIL [4]: 7.67%
NUCLEATED RED BLOOD CELLS [4]: 0 /100WBC
PLATELET COUNT [4]: 1213.67 x10E3/uL
ALANINE AMINOTRANSFERASE [4]: 48 u/L
ALBUMIN [4]: 4.33 G/DL
ALKALINE PHOSPHATASE [4]: 380 u/L
ASPARTATE AMINOTRANSFERASE [4]: 78.67 u/L
BLOOD UREA NITROGEN [4]: 19 mg/dL
CARBON DIOXIDE [4]: 29 mmol/L
CHLORIDE [4]: 100.67 MEQ/L
CHOLESTEROL [4]: 74.33 mg/dL
CREATINE PHOSPHOKINASE [4]: 277.67 u/L
CREATININE [4]: 0.24 mg/dL
GLUCOSE [4]: 147 mg/dL
LACTATE DEHYDROGENASE [4]: 321.33 u/L
LIPASE [4]: 9.33 u/L
PHOSPHORUS [4]: 10.77 mg/dL
POTASSIUM [4]: 6.44 MEQ/L
SODIUM [4]: 143.33 MEQ/L
TOTAL BILIRUBIN [4]: 0.2 mg/dL
TOTAL PROTEIN [4]: 6.2 G/DL
URIC ACID [4]: 1.5 mg/dL
ABSOLUTE BASOPHIL [5]: 50 cells/µL
ABSOLUTE EOSINOPHIL [5]: 43.3 cells/µL
ABSOLUTE LYMPHOCYTE [5]: 9670 cells/µL
ABSOLUTE MONOCYTE [5]: 210 cells/µL
BASOPHIL [5]: 0.4%
EOSINOPHIL [5]: 0.37%
ERYTHROCYTE COUNT [5]: 6.82 x10E6/uL
HEMATOCRIT [5]: 46.77%
HEMOGLOBIN [5]: 14.53 G/DL
LEUKOCYTE COUNT [5]: 11.77 x10E3/uL
LYMPHOCYTE [5]: 82.1%
MEAN CORPUSCULAR HEMOGLOBIN [5]: 21.33 pg
MEAN CORPUSCULAR HEMOGLOBIN CONCENTRATION [5]: 31.13 G/DL
MEAN CORPUSCULAR VOLUME [5]: 68.57 fL
MONOCYTE [5]: 1.8%
NEUTROPHIL [5]: 14.83%
PLATELET COUNT [5]: 1303.33 x10E3/uL
ALANINE AMINOTRANSFERASE [5]: 46.67 u/L
ALBUMIN [5]: 4.17 G/DL
ALKALINE PHOSPHATASE [5]: 530 u/L
ASPARTATE AMINOTRANSFERASE [5]: 81.33 u/L
BLOOD UREA NITROGEN [5]: 17.67 mg/dL
CARBON DIOXIDE [5]: 41.67 mmol/L
CHLORIDE [5]: 102 MEQ/L
CHOLESTEROL [5]: 70.33 mg/dL
CREATINE PHOSPHOKINASE [5]: 372.67 u/L
CREATININE [5]: 0.5 mg/dL
GLUCOSE [5]: 184 mg/dL
LIPASE [5]: 13.33 u/L
PHOSPHORUS [5]: 10.2 mg/dL

Source: ChEMBL document CHEMBL3885881, “DrugMatrix”
